Source: patent US6355799B1, “Substituted benzene compounds, process for their preparation, and herbicidal and defoliant compositions containing them” (ISK Americas Incorporated, priority 1997, dated 2002)

Experiments:
Assay type in all cases: in vivo
[1] = system: upland rice (Oryza sp., var. Tebonnet, RICE); test: Post-emerge test, crop safety; settings: post-emerge, 14 days after application, rating scale 0-100
How it was run: (§1)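 Plants grown in 10 cm pots of sandy loam mix received acetone-dissolved compounds through a moving flat-fan nozzle. Doses ranged from 15 to 1000 g ai/ha. Pre-emerge pots were seeded one day earlier, post-emerge pots 8–21 days earlier. Fourteen days on, each pot was graded 0–100 for damage.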

[2] = system: field corn (Zea mays L., var. Dekalb 535, CORN); test: Post-emerge test, crop safety; settings: post-emerge, 14 days after application, rating scale 0-100
How it was run: as §1

[3] = system: barnyardgrass (Echinochloa crus-galli, ECHCG); test: Pre-emerge test, greenhouse herbicide activity screening; settings: pre-emerge, 14 days after application, scale 0-100
Description: (§2) A standard greenhouse herbicide activity screening system was used to evaluate the herbicidal efficacy and crop safety of these test compounds. Seven broadleaf weed species including redroot pigweed (Amaranthus retroflexus, AMARE, velvetleaf (Abutilon theophrasti, ABUTH), sicklepod (Cassia obtusifolia, CASOB), ivyleaf morningglory (Ipomoea hederacea, IPOHE), lambsquarters (Chenopodium album, CHEAL), common ragweed (Ambrosia artemisizfolia L., AMBEL), and cocklebur (Xanthium strumarium, XANST) were used as test species. Four grass weed species including green foxtail (Setaria viridis, SETVI), barnyardgrass (Echinochloa crus-galli, ECHCG), johnsongrass (Sorghum halepense, SORHA), and large crabgrass (Digitaria sanguinalis, DIGSA) were also used. In addition, three crop species, field corn (Zea mays L., var. Dekalb 535, CORN), soybean (Glycine max L., var. Pella 86, SOY), and is upland rice (Oryza sp., var. Tebonnet, RICE) were included.
(§3) All plants were grown in 10 cm square plastic pots which were filled with a sandy loam soil mix. For pre-emerge tests, seeds were planted one day prior to application of the test compounds. For post-emerge tests, seeds were planted 8-21 days prior to the test to allow emergence and good foliage development prior to application of the test substances. At the time of the post-emerge application, plants of all species were usually at the 2-3 leaf stage of development.
(§4) All test compounds Were dissolved in acetone and applied to the test units in a volume of 187 l /ha. Test materials were applied at rates ranging from 15 g ai/ha to 1000 g ai/ha using a track sprayer equipped with a TJ8001E even flow flat fan spray nozzle. Plants were arranged on a shelf so that the top of the canopy (post-emerge) or top of the soil surface (pre-emerge) was 40-45 cm below the nozzle. Pressurized air was used to force the test solution through the nozzle as it was mechanically advanced (via electrically driven chain drive) over the top of all test plants/pots. This application simulates a typical commercial field herbicide application.
(§5) In the post-emerge test, a commercial non-ionic surfactant was also included (0.25% v/v) to enhance wetting of the leaf surfaces of target plants. Immediately after application, test units of the pre-emerge applications were watered at the soil surface to incorporate the test materials. Subsequently, these test units were bottom-watered. Post-emerge test units were always bottom-watered.
(§6) At 14 days after application of the test materials, phytotoxicity ratings were recorded. A rating scale of 0-100 was used as previously described in Research Methods in Weed Science, 2nd edition, B. Truelove, Ed., Southern Weed Science Society, Auburn University, Auburn, Ala. 1977. Briefly, “0” corresponds to no damage and “100” corresponds to complete death of all plants in the test unit. This scale was used both to determine efficacy against weed species and damage to crop species. Herbicide activity data for various compounds of this invention, which are shown by compound No. in Tables 1-8, are shown in Tables 11 and 12.

[4] = system: velvetleaf (Abutilon theophrasti, ABUTH); test: as above; settings: pre-emerge, 14 days after application, scale 0-100
Description: as §2, §3, §4, §5, §6

[5] = system: lambsquarters (Chenopodium album, CHEAL); test: as above; settings: pre-emerge, 14 days after application, scale 0-100
Description: as §2, §3, §4, §5, §6

[6] = system: sicklepod (Cassia obtusifolia, CASOB); test: as above; settings: pre-emerge, 14 days after application, scale 0-100
Description: as §2, §3, §4, §5, §6

[7] = system: large crabgrass (Digitaria sanguinalis, DIGSA); test: as above; settings: pre-emerge, 14 days after application, scale 0-100
Description: as §2, §3, §4, §5, §6

[8] = system: ivyleaf morningglory (Ipomoea hederacea, IPOHE); test: as above; settings: pre-emerge, 14 days after application, scale 0-100
Description: as §2, §3, §4, §5, §6

[9] = system: green foxtail (Setaria viridis, SETVI); test: as above; settings: pre-emerge, 14 days after application, scale 0-100
Description: as §2, §3, §4, §5, §6

[10] = system: upland rice (Oryza sp., var. Tebonnet, RICE); test: Pre-emerge test, crop safety; settings: pre-emerge, 14 days after application, scale 0-100
How it was run: (§7)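 Applied at 15–1000 g ai/ha from acetone in 187 l/ha spray volume. Post-emergence applications included 0.25% v/v non-ionic surfactant and reached plants sown 8–21 days before. Pre-emergence applications were incorporated by surface watering. Efficacy or crop damage was rated on a 0–100 scale after 14 days.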

[11] = system: field corn (Zea mays L., var. Dekalb 535, CORN); test: Pre-emerge test, crop safety; settings: pre-emerge, 14 days after application, scale 0-100
How it was run: as §7

[12] = system: redroot pigweed (Amaranthus retroflexus, AMARE); test: Pre-emerge test, greenhouse herbicide activity screening; settings: pre-emerge, 14 days after application, scale 0-100
How it was run: as §1

[13] = system: barnyardgrass (Echinochloa crus-galli, ECHCG); test: Post-emerge test, greenhouse herbicide activity screening; settings: post-emerge, 14 days after application, rating scale 0-100
Description: as §2, §3, §4, §5, §6

[14] = system: velvetleaf (Abutilon theophrasti, ABUTH); test: as above; settings: post-emerge, 14 days after application, rating scale 0-100
Description: as §2, §3, §4, §5, §6

[15] = system: lambsquarters (Chenopodium album, CHEAL); test: as above; settings: post-emerge, 14 days after application, rating scale 0-100
Description: as §2, §3, §4, §5, §6

[16] = system: sicklepod (Cassia obtusifolia, CASOB); test: as above; settings: post-emerge, 14 days after application, rating scale 0-100
Description: as §2, §3, §4, §5, §6

[17] = system: large crabgrass (Digitaria sanguinalis, DIGSA); test: as above; settings: post-emerge, 14 days after application, rating scale 0-100
Description: as §2, §3, §4, §5, §6

[18] = system: redroot pigweed (Amaranthus retroflexus, AMARE); test: as above; settings: post-emerge, 14 days after application, rating scale 0-100
Description: as §2, §3, §4, §5, §6

[19] = system: ivyleaf morningglory (Ipomoea hederacea, IPOHE); test: as above; settings: post-emerge, 14 days after application, rating scale 0-100
Description: as §2, §3, §4, §5, §6

[20] = system: green foxtail (Setaria viridis, SETVI); test: as above; settings: post-emerge, 14 days after application, rating scale 0-100
Description: as §2, §3, §4, §5, §6

COc1c(Cl)cc(F)c(-n2c(=O)cc(C(F)(F)F)n(N)c2=O)c1NC(=O)c1ccc2ccccc2c1 [2-184]
RICE phytotoxicity rating (crop damage) ([1]; 63 g ai/ha): 40 | RICE phytotoxicity rating (crop damage) ([1]; 250 g ai/ha): 65 | CORN phytotoxicity rating (crop damage) ([2]; 63 g ai/ha): 10 | CORN phytotoxicity rating (crop damage) ([2]; 250 g ai/ha): 75 | phytotoxicity rating ECHCG ([3]; 63 g ai/ha): 30 | phytotoxicity rating ECHCG ([3]; 250 g ai/ha): 80 | phytotoxicity rating ABUTH ([4]; 63 g ai/ha): 100 | phytotoxicity rating ABUTH ([4]; 250 g ai/ha): 100 | phytotoxicity rating CHEAL ([5]; 63 g ai/ha): 100 | phytotoxicity rating CHEAL ([5]; 250 g ai/ha): 100 | phytotoxicity rating CASOB ([6]; 63 g ai/ha): 50 | phytotoxicity rating CASOB ([6]; 250 g ai/ha): 75 | phytotoxicity rating DIGSA ([7]; 63 g ai/ha): 60 | phytotoxicity rating DIGSA ([7]; 250 g ai/ha): 100 | phytotoxicity rating IPOHE ([8]; 63 g ai/ha): 50 | phytotoxicity rating IPOHE ([8]; 250 g ai/ha): 100 | phytotoxicity rating SETVI ([9]; 63 g ai/ha): 50 | phytotoxicity rating SETVI ([9]; 250 g ai/ha): 100 | phytotoxicity rating RICE (crop damage) ([10]; 63 g ai/ha): 30 | phytotoxicity rating RICE (crop damage) ([10]; 250 g ai/ha): 60 | phytotoxicity rating CORN (crop damage) ([11]; 63 g ai/ha): 0 | phytotoxicity rating CORN (crop damage) ([11]; 250 g ai/ha): 30 | phytotoxicity rating AMARE ([12]; 63 g ai/ha): 100 | phytotoxicity rating AMARE ([12]; 250 g ai/ha): 100 | ECHCG phytotoxicity rating ([13]; 63 g ai/ha): 40 | ECHCG phytotoxicity rating ([13]; 250 g ai/ha): 50 | ABUTH phytotoxicity rating ([14]; 63 g ai/ha): 100 | ABUTH phytotoxicity rating ([14]; 250 g ai/ha): 100 | CHEAL phytotoxicity rating ([15]; 63 g ai/ha): 100 | CHEAL phytotoxicity rating ([15]; 250 g ai/ha): 100 | CASOB phytotoxicity rating ([16]; 63 g ai/ha): 100 | CASOB phytotoxicity rating ([16]; 250 g ai/ha): 100 | DIGSA phytotoxicity rating ([17]; 63 g ai/ha): 20 | DIGSA phytotoxicity rating ([17]; 250 g ai/ha): 90 | AMARE phytotoxicity rating ([18]; 63 g ai/ha): 100 | AMARE phytotoxicity rating ([18]; 250 g ai/ha): 100 | IPOHE phytotoxicity rating ([19]; 63 g ai/ha): 100 | IPOHE phytotoxicity rating ([19]; 250 g ai/ha): 100 | SETVI phytotoxicity rating ([20]; 63 g ai/ha): 60 | SETVI phytotoxicity rating ([20]; 250 g ai/ha): 80
